Experimental data as given in ChEMBL document CHEMBL1132529 (Bioorg Med Chem Lett, 1999).

Target: T1, Neutrophil elastase (Homo sapiens, UniProt P08246)
T1 sequence (P08246 whole entry): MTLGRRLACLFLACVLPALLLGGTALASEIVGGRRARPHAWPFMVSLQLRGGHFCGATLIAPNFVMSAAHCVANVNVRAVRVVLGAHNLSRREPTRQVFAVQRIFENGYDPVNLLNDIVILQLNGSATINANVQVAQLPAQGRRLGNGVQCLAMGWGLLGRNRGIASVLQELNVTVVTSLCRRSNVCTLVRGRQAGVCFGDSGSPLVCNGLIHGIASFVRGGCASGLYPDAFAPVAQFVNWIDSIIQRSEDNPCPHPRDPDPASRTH
Experiment: Inhibitory constant for human neutrophil elastase

SMILES: CC[C@@H](C)[C@H](NCc1ccccc1)C(=O)N[C@@H](CCCCNC(=O)C12CC3CC(CC(C3)C1)C2)C(=O)N[C@@H](CS)C(=O)N[C@H](C(=O)O)C(C)C
- Ki: 270 µM
